Target: FIH (Homo sapiens, UniProt Q9NWT6)
Test: Time-dependent cellular thermal shift assay (CETSA) in Hep3B cells, FIH
Format: cell-based
Parameters: endogenous in cells; host or cells: Hep3B (SCSP-5045)
Conditions: for ΔTm at 50 µM: Hep3B
Method: To investigate potential cellular target engagement of NBA-ZG-2291 with FIH, we performed a time-dependent cellular thermal shift assay (CETSA) using Hep3B cells. The results imply that, after 30 min of light activation (365 nm, 16 W), NBA-ZG-2291 effectively stabilizes FIH with a ΔT m of about 9 °C after incubation for 12–48 h (Figure A), indicating sustained engagement with FIH. […] We also performed Western blotting to examine the protein levels of both HIF-1α and HIF-2α in control and NBA-ZG-2291-treated Hep3B cells.
5 NBA-ZG-2991 sustainably engages with FIH and regulates the expression of FIH-dependent HIF target gene EGLN3 in Hep3B cells. (A) The CETSA assay was carried out with Hep3B cells grown in the presence of NBA-ZG-2291 (50 μM) for 12–48 h after 30 min of light activation (365 nm, 16 W). The intensity of the bands for grayscale analysis was referenced to the starting temperature (37 °C). α-Actinin was the sample loading control. n = 2; mean ± SD. […] (E) Correlation heatmap of the NBA-ZG-2291-treated group and the siFIH group by RNA-sequencing analysis. […] The relative fold change with respect to DMSO treated sample is shown (with normalization to HPRT gene levels). Mean ± SEM; n = 3. (G) TG level of NBA-ZG-2291-treated 3T3-L1-derived adipocytes. Mean ± SEM; n = 3. (H) Representative Oil Red O-stained images of the control, ZG-2291-treated, and NBA-ZG-2291-treated 3T3-L1-derived adipocytes. Scale Bar, 30 μm. P values were analyzed by two-way ANOVA comparing with the vehicle/control group (*, P < 0.05; **, P < 0.01; ***, P < 0.001, ****, P < 0.0001). See Methods (Quantitative PCR Analysis of Gene Expression) for assay details. […]
Data acquisition was carried out in Full MS mode, positive ion detection, the acquisition time was 10 min, and the scanning range of the mass-to-charge ratio was 400-2000 m/z.
3.5 Dihedral angle scan analysis
Dihedral angle scans were performed using the Gaussion 16 suite11. The original dihedral angles of the isoxazol-5-yl pyridine fragment were set to 0° via Gaussian View 6.0.16 for dihedral scanning from 0° to 360° in 1° increments at the B3LPY-D3(BJ)/6-31+G(d) level of theory. The resulting 360 conformations and the single-point energy for each conformation were extracted.
3.6 Molecular dynamics (MD) simulations
The process of customizing non-standard residues (NBA-ZG-2291 modified Lys106) in the amber14sb force field involved the following steps: First, the molecular structure of NBA-ZG-2291 was obtained and its topology was generated. […]
The RESP charges were fitted using Multiwfn, wherein the optimized structure and ESP data were inputted to perform the restrained electrostatic potential fitting. The obtained RESP charges were subsequently incorporated into the gaff topology generated by Multwfn. […]

Sequence of FIH (Q9NWT6 whole entry): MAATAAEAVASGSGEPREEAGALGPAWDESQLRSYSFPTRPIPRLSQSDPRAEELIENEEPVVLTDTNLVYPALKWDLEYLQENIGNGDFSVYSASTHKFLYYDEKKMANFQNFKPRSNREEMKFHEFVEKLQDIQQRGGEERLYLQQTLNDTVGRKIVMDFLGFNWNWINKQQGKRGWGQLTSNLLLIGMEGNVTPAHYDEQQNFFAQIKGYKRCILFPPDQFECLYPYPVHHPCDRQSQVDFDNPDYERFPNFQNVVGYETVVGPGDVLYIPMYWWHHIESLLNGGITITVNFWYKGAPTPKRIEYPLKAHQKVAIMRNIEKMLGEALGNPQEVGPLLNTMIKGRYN

ΔTm at 50 µM (incubation 12 h after 30 min light activation (365 nm, 16 W)): 8.87 °C | ΔTm at 50 µM (incubation 24 h after 30 min light activation (365 nm, 16 W)): 9.28 °C | ΔTm at 50 µM (incubation 48 h after 30 min light activation (365 nm, 16 W)): 8.86 °C | FIH: ΔTm (incubation for 12–48 h after 30 min light activation (365 nm, 16 W)): about 9 °C
SMILES: O=C(O)CNC(=O)c1ncc(-c2cc(-c3ccc(CO)c([N+](=O)[O-])c3)no2)cc1O [NBA-ZG-2291]

From paper PMC12123601, “Light-Induced, Lysine-Targeting Irreversible Covalent Inhibition of the Human Oxygen Sensing Hydroxylase Factor Inhibiting HIF (FIH)” (Journal of the American Chemical Society, 2025)
